Assay results published in patent publication US20230100559A1, “Compositions and Methods for Treatment of Disease by Manipulation of Serine Metabolism” (The Trustees of Princeton University, priority 2020, published 2023).
Entries after “also recorded” stand apart in the source; their conditions may differ.

Tests used:
SHMT1 = molecular target: T1, SHMT1 (Homo sapiens, UniProt P34896); experiment: SHMT1 inhibition (Table 2); assay type: biochemical
T1 sequence (P34896 1-483): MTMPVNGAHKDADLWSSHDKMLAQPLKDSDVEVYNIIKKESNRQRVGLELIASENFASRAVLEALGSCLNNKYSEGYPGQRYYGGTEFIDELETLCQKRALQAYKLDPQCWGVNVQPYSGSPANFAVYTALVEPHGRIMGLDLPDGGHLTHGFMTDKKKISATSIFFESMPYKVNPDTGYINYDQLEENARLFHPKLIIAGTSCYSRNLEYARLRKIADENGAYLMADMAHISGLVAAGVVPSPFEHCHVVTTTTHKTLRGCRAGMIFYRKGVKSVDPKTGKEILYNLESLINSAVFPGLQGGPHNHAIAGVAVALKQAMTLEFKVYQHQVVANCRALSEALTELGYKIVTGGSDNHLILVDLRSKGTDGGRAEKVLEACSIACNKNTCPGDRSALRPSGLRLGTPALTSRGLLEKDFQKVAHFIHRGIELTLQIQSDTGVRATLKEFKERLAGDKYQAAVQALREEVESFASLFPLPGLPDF

SHMT2 = molecular target: T2, SHMT2 (Homo sapiens, UniProt P34897); experiment: SHMT2 inhibition (Table 2); assay type: biochemical
T2 sequence (P34897 30-504): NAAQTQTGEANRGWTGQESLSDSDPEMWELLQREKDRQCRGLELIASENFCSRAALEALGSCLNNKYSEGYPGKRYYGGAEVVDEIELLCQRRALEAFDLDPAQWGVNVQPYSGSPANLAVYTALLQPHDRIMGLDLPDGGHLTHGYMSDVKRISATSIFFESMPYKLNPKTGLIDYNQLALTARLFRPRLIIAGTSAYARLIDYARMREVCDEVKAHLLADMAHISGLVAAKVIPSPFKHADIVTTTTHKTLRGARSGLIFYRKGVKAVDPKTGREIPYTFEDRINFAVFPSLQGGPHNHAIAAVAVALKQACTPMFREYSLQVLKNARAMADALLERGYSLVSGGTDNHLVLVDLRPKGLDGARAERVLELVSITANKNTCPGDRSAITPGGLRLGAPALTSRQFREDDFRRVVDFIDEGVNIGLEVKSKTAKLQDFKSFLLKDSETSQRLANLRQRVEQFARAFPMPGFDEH

HCT116 cells [1] = experiment: Cell proliferation assay, HCT116; assay type: cell-based
Description: (§1) Cell Proliferation Assays. Cells were seeded in seeded in 96 well plates (Corning 3603) for overnight attachment. Medium (with or without drugs) was changed next day, and cell numbers were recorded using Thermofisher CyQUANT kit.

C2C12 cells = C2C12 cells treated with metformin, serine catabolism inhibition; assay type: cell-based; conditions: C2C12, 5 mM metformin, SHIN1 250 nM
Description: (§2) Adherent cells. Cells were seeded in 6 well plates overnight and then were treated with ETC inhibitors. Serine-free DMEM with 10% dialyzed FBS was supplemented with 400 µM [2,3,3, 2H]serine. Medium was replaced by the isotope tracing medium with corresponding drugs, and cells were incubated for 3 h. Medium was aspirated, and metabolism was quenched with extraction buffer (40:40:20 acetonitrile:methanol: water with 0.5% formic acid; 40 μl of extraction solvent per 1 μl packed cell volume)(Lu et al., 2018). Plates were placed on dry ice for 10 mins, and thereafter the extraction solution was neutralized with 15% NH4HCO3 (70 μl for 800 μl extraction buffer). Cells were then scraped off from plates by using a cell lifter (Corning 3008), transferred into Eppendorf tubes and centrifuged in a benchtop microfuge at maximum speed for 30 min at 4° C. Supernatant was transferred to LC-MS vials for analysis.
as §1

HCT116 xenograft tumors = experiment: HCT116 xenograft tumors, metabolomics and [2,3,3-2H]serine tracing; assay type: in vivo, mice
Description: Mouse Xenograft and allograft. For tumor xenograft tracing experiments, 6- to 7-week-old male CD1/nude mice were injected in the rear flanks with HCT-116 (1×10^6 cells in 100 μL 1:1 PBS:Matrigel). For tumor allograft tracing experiment, 6- to 8-wk-old male C57BL6 mice were injected in the rear flank with KrasLSL.G12D/+x p53R172H/+x PdxCretg/+ pancreatic tumor tissue suspension (200 μL 1:1 DMEM:Matrigel). Jugular vein catheterization surgery was performed when tumor size reached 250 mm3 [volume=1/2 (length×width×height)]. […] Tracing experiments were performed after 1 week of post-surgery monitoring. Tumors were removed and immediately clamped to aluminum foil using Wollenberger clamp and stored in liquid nitrogen. For Long term storage, tissues were kept in −80° C. until future sample preparation.
Metabolites extraction from tissue, tumors and serum. Tissues and tumors were collected from mice and immediately clamped into liquid nitrogen using Wollenberger clamp, tissue were stored in −80° C. Frozen tissues were transferred into 2 ml Eppendorf tubes, which are precooled on dry ice, and pulverized by using cyromill. The resulting tissue powder was weighed (around 10 mg) and mixed well by vortexing in extraction buffer (40 μL extraction buffer per mg tissue). The extraction solution was neutralized with NH4HCO3 as above and centrifuged in a microfuge at maximum speed for 30 min at 4° C. Supernatant was transferred to LC-MS vials for analysis.
IACS-10759 is a potent mitochondrial complex I inhibitor with efficacy in inhibiting tumor growth and inducing apoptosis in models of brain cancer and acute myeloid leukemia. Molina, J. R. et al., Nat. Med. 24, 1036-1046 (2018). […] To check whether circulating serine contributes NADH when respiration is impaired in vivo, [2,3,3-^2H]serine was infused into tumor bearing mice.

MTHFD2 = molecular target: T3, MTHFD2 (Homo sapiens, UniProt P13995); experiment: Enzymatic assay for MTHFD2 with increasing NADH; assay type: biochemical
T3 construct: purchased Raze Therapeutics (gift, not a catalogue product)
T3 sequence (P13995 36-350): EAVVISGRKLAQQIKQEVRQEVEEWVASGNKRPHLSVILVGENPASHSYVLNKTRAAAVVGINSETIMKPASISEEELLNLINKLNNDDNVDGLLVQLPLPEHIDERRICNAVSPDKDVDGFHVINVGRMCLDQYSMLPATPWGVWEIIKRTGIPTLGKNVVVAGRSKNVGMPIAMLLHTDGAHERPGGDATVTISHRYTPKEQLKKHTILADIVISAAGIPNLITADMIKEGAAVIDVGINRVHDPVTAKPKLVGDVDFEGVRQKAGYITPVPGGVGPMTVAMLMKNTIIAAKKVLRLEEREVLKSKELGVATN
Description: Enzymatic Assay for MTHFD2. NAD (Sigma N0632), NADH (Sigma N8129) and 5, 10-meTHF (Schircks Laboratories, 16.226) solution were freshly prepared each time in water. Reaction mixtures consisted of 50 mM KH2PO4 pH 7.4, 5 mM dithiothreitol (DTT), 5% DMSO, and 0.005 mg/mL MTHFD2 (obtained from Raze Therapeutics), and NAD and NADH as indicated in the Figures. Reaction mixtures were incubated for 5 min at 37° C. before initiation of the reaction by addition of 5,10-meTHF to a final concentration of 0.4 mM using multichannel. The plate was mixed for 5 s in the plate reader (Biotek Synergy HT), and the rate of change in absorbance at 340 nm due to NADH accumulation was recorded over the duration of linear NADH accumulation.
Enzymatic Assay for MDH. NAD and NADH solutions were freshly prepared in water; malate solution was prepared in 50 mM Tris-HCl and adjusted pH to 7.6 with 10 M KOH. […] The plate was mixed for 5 s in the plate reader, and absorbance at 340 nm recorded as above.
Enzymatic assay for PDH and KGDH: Pyruvate dehydrogenase and alpha-ketoglutarate dehydrogenase solutions were freshly prepared to a concentration 0.075 unit/ml with buffer containing 20 mM sodium phosphate and 1 mM MgCl2, pH7.2. […] The plate was mixed for 5 s in the plate reader, and absorbance at 340 nm recorded as above.

HCT116 cells [2] = experiment: NAD2H labeling from [2,3,3-2H]serine in cultured cells; assay type: cell-based
Description: as §2
LC-MS. […] Solvent A is 95:5 water: acetonitrile with 20 mM ammonium acetate and 20 mM ammonium hydroxide at pH 9.4, and solvent B is acetonitrile. The gradient was 0 min, 85% B; 2 min, 85% B; 3 min, 60% B; 9 min, 60% B; 9.5 min, 35% B; 13 min, 5% B; 15.5 min, 5% B; 16 min, 85% B; 20 min, stop run. Injection volume was 15 μL. The Q-Exactive Plus mass spectrometer was operated in negative ion mode scanning from m/z 70-1000 with a resolution (at m/z 200) of 140,000 (AGC target 3e6, Maximum IT 200 ms) (Wang et al., 2019). A second scan from m/z 640-765 with a resolution (at m/z 200) of 35,000 (AGC target 5e5, maximum IT 200 ms) was used to measure NAD(P), NAD(P)H, and their labeling. The purpose of the second scan was to enhance sensitivity for NAD(P)(H) by restricting the range of ions in the orbitrap and to maximize the accuracy of isotope ratios by decreasing the scan range and mass resolution (Su et al., 2017).
Calculation of 2H-serine contribution to malate, aspartate, and NADH: For malate and aspartate, the 2H-labeling fraction was measured directly (fractional size of 2H-peak relative to sum of all peaks, after isotope correction as above). For NADH, the 2H-labeling fraction was measured based on the active hydride labeling (x), which was determined from the labeling pattern of NAD+ and NADH by least square fitting in MATLAB of the observed experimental data (after natural isotope correction) to the below vectors (Liu et al., 2016a).

liver NADH/NAD ratio = experiment: Serine/metformin drinking water, liver metabolomics; assay type: in vivo, mice; conditions: 5% serine or 0.25% metformin drinking water for 2 weeks
[3] = IACS-10759 10 mg/kg gavage every day for 7 days, CD-1 nude mice
[4] = cultured cells, complex I inhibitor added

## Cc1n[nH]c2c1C(c1cc(Cl)cc(Cl)c1)(C1CCC1)C(C#N)=C(N)O2 (centres unmarked) [HK-10]
SHMT1
  IC50: 593 nM
SHMT2
  IC50: 1190 nM

## Cc1n[nH]c2c1C(c1cc(Cl)cc(Cl)c1)(C(C)C)C(C#N)=C(N)O2 (centres unmarked) [HK-14]
SHMT1
  IC50: 67 nM
SHMT2
  IC50: 131 nM

## Cc1n[nH]c2c1C(c1cc(Cl)cc(C(F)(F)F)c1)(C(C)C)C(C#N)=C(N)O2 (centres unmarked) [HK-15]
SHMT1
  IC50: 20 nM
SHMT2
  IC50: 35 nM

## Cc1n[nH]c2c1C(c1cc(N3CCCC3)cc(C(F)(F)F)c1)(C(C)C)C(C#N)=C(N)O2 (centres unmarked) [HK-X1]
SHMT1
  IC50: 13 nM
SHMT2
  IC50: 66 nM

## Cc1[nH]nc2c1C(c1cc(CO)cc(-c3ccccc3)c1)(C(C)C)C(C#N)=C(N)O2 (centres unmarked) [HK-X2 (SHIN1)]
HCT116 cells [1]; HCT116, in the presence of metformin
  cell proliferation / growth: enhances growth; also recorded: augmented proliferation
HCT116 cells [1]; HCT116, in the presence of phenformin or rotenone
  cell proliferation / growth: enhances growth; also recorded: augmented proliferation
HCT116 cells [1]; HCT116, standard tissue culture conditions
  cell proliferation: decreased cell proliferation
HCT116 cells [1]; HCT116 WT, hypoxia (0.5% O2), low doses of SHIN1
  cell growth: modestly increased cell growth
C2C12 cells
  aspartate: enhances aspartate
  cell growth / tolerance of metformin: restores; also recorded: better tolerated metformin

## Cc1nc(-c2nc(-c3ccc(OC(F)(F)F)cc3)no2)nn1Cc1cccc(N2CCC(S(C)(=O)=O)CC2)c1 [IACS-10759]
HCT116 xenograft tumors; [3]
  NADH/NAD ratio of tumors: increased
  intra-tumor lactate level: increased
HCT116 xenograft tumors; IACS-10759 10 mg/kg, 2.5 hours serine infusion
  2H-malate labeling from [2,3,3-2H]serine in tumors: increased

## NC(=O)C1=CN([C@@H]2O[C@H](COP(=O)(O)OP(=O)(O)OC[C@H]3O[C@@H](n4cnc5c(N)ncnc54)[C@H](O)[C@@H]3O)[C@@H](O)[C@H]2O)C=CC1 [NADH]
MTHFD2; NADH as competitive (product) inhibitor, adequate NAD
  NADH level up to which MTHFD2 maintains full activity: up to 200 μM
MTHFD2; product inhibition by NADH
  sensitivity of MTHFD2 to NADH, less than PDH, KGDH and malate dehydrogenase: at least 10 fold

## N#C/C(=C\c1cn(-c2ccccc2)c2ccccc12)C(=O)O [UK5099]
HCT116 cells [2]; metformin-treated cells with pyruvate
  block of the pyruvate effect (rescue of NADH phenotypes): does not block; also recorded: not blocked

## CC1=C(C)C(=O)C(C)=C(C)C1=O [duroquinone]
HCT116 cells [2]; added to metformin-treated cells (HCT116, 5 mM metformin)
  fractional contribution of serine to NADH: decreased

## CN(C)C(=N)N=C(N)N [metformin, reference compound]
HCT116 cells [2]; [4]
  fractional contribution of serine to NADH: dramatically elevated
Liver NADH/NAD ratio
  NADH/NAD ratio in liver: increased; also recorded: significantly increase

## [H]/N=C(/N)N/C(=N/[H])NCCc1ccccc1 [phenformin]
HCT116 cells [2]; [4]
  fractional contribution of serine to NADH: dramatically elevated

## N[C@@H](CO)C(=O)O [serine]
Liver NADH/NAD ratio
  NADH/NAD ratio in liver: significantly increase
Liver NADH/NAD ratio; listed as Serine
  NADH/NAD ratio in liver: increased
